Laboratory results as given in PubChem BioAssay (NCI).
“And” between values parts separate entries of the source, which are not always exact repeats. Equal values may be shown once.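 Where inhibition never reached the appropriate level, the endpoint shown equals the highest concentration tested. Otherwise, values were interpolated linearly from a five-concentration, 48-hour dose response in 96-well plates. Abbreviation: GI50, concentration required for 50% inhibition of growth. Definition used: TGI = concentration required for complete inhibition of growth.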

Assays:
Test in all cases: NCI anticancer screen, dose series, 48 h
[1] = system: SNB-75 CNS
[2] = system: DMS 114 small cell lung
[3] = system: SW-620 colon
[4] = system: ACHN renal
[5] = system: OVCAR-3 ovarian
[6] = system: KM20L2 colon
[7] = system: DLD-1 colon
[8] = system: CCRF-CEM leukemia
[9] = system: SF-295 CNS
[10] = system: EKVX NSCLC
[11] = system: XF 498 CNS
[12] = system: PC-3 prostate

Cc1ccc(S(=O)C(C)C(Cl)c2ccccc2)cc1 (stereo not drawn)
TGI [1]: > 100 µM | TGI [2]: > 100 µM | TGI [3]: > 100 µM | TGI [4]: > 100 µM | TGI [5]: > 100 µM | TGI [6]: > 100 µM | TGI [7]: > 100 µM | TGI [8]: > 100 µM | TGI [9]: > 100 µM

COc1cc(OC)c2c(=O)c3cccc([N+](=O)[O-])c3n(C)c2c1
TGI [1]: > 100 µM | TGI [2]: > 100 µM | TGI [10]: > 100 µM | TGI [11]: > 100 µM | TGI [3]: > 100 µM | TGI [6]: > 100 µM | TGI [8]: > 100 µM | TGI [9]: > 100 µM

O=C1OC(=O)C([Se]c2ccccc2)=C1[Se]c1ccccc1
TGI [1]: > 100 µM | TGI [2]: > 100 µM | TGI [10]: > 100 µM | TGI [3]: > 100 µM | TGI [4]: > 100 µM | TGI [5]: > 100 µM | TGI [6]: > 100 µM | TGI [7]: > 100 µM | TGI [8]: > 100 µM | TGI [9]: > 100 µM

C[C@H]1CC[P+](C)(c2ccccc2)C1 (stereo partly drawn)
TGI [1]: > 100 µM | TGI [2]: > 100 µM | TGI [10]: > 100 µM | TGI [3]: > 100 µM | TGI [4]: > 100 µM | TGI [5]: > 100 µM | TGI [6]: > 100 µM | TGI [7]: > 100 µM | TGI [8]: > 100 µM | TGI [9]: > 100 µM

OCC(O)C(O)C(O)C(O)c1nnc2c(-c3ccccc3)nc3ccccc3n12 (stereo not drawn)
GI50 [12]: 43.2 µM | TGI [12]: > 100 µM | GI50 [1]: > 100 µM | TGI [1]: > 100 µM | GI50 [10]: > 100 µM | TGI [10]: > 100 µM | GI50 [3]: > 100 µM | TGI [3]: > 100 µM | GI50 [4]: > 100 µM | TGI [4]: > 100 µM | GI50 [5]: > 100 µM | TGI [5]: > 100 µM | GI50 [8]: > 100 µM | TGI [8]: > 100 µM | GI50 [9]: > 100 µM | TGI [9]: > 100 µM

CC(O)[C@H](NC(=O)N[C@@H](CC(N)=O)c1nc(N2CCNCC2)no1)C(=O)O (stereo partly drawn)
GI50 [12]: > 100 µM | TGI [12]: > 100 µM | GI50 [1]: > 100 µM | TGI [1]: > 100 µM | GI50 [10]: > 100 µM | TGI [10]: > 100 µM | GI50 [3]: > 100 µM | TGI [3]: > 100 µM | GI50 [4]: > 100 µM | TGI [4]: > 100 µM | GI50 [5]: > 100 µM | TGI [5]: > 100 µM | GI50 [8]: > 100 µM | TGI [8]: > 100 µM | GI50 [9]: > 100 µM | TGI [9]: > 100 µM

C=CC(=O)Nc1cc2c(Nc3ccc(F)c(Cl)c3)ncnc2cc1C#CC(C)(C)N1CCN(C)CC1
GI50 [12]: 1.93 µM | TGI [12]: 5.31 µM | GI50 [1]: 1.16 µM | TGI [1]: 3.86 µM | GI50 [10]: 0.246 µM | TGI [10]: 4.39 µM | GI50 [3]: 2 µM | TGI [3]: 4.61 µM | GI50 [4]: 0.0779 µM | TGI [4]: 4.26 µM | GI50 [5]: 1.13 µM | TGI [5]: 2.85 µM | GI50 [8]: 1.24 µM | TGI [8]: 5.08 µM | GI50 [9]: 2.94 µM | TGI [9]: 6.62 µM

O=C1CCC(=O)N1Sc1ccccc1
TGI [1]: > 100 µM | TGI [2]: > 100 µM | TGI [10]: > 100 µM | TGI [3]: > 100 µM | TGI [4]: > 100 µM | TGI [5]: > 100 µM | TGI [6]: > 100 µM | TGI [7]: > 100 µM | TGI [8]: > 100 µM | TGI [9]: > 100 µM

CCCCCCCCCCCCCCCC[n+]1ccccc1
GI50 [12]: 0.243 µM and 0.244 µM | TGI [12]: 0.846 µM and 0.692 µM | GI50 [1]: 0.528 µM and 0.609 µM | TGI [1]: 1.72 µM and 2.78 µM | GI50 [10]: 0.453 µM | TGI [10]: 2.09 µM | GI50 [3]: 0.391 µM and 0.488 µM | TGI [3]: 1.57 µM and 1.94 µM | GI50 [4]: 0.733 µM and 0.909 µM | TGI [4]: 2.16 µM and 4.49 µM | GI50 [5]: 0.366 µM | TGI [5]: 1.5 µM | GI50 [8]: 0.281 µM | TGI [8]: 1.33 µM | GI50 [9]: 0.311 µM | TGI [9]: 1.42 µM

CCN(c1ccccc1)[C@H]1C(=O)N(c2ccc([N+](=O)[O-])cc2)[C@H]1c1ccc(OC)cc1
TGI [1]: > 100 µM | TGI [2]: > 100 µM | TGI [10]: > 100 µM | TGI [3]: > 100 µM | TGI [4]: > 100 µM | TGI [5]: > 100 µM | TGI [7]: > 100 µM | TGI [8]: > 100 µM | TGI [9]: > 100 µM

CC(=O)OCC1OC(n2c3c(cc(C#N)c2=S)CCCC3)C(OC(C)=O)C(OC(C)=O)C1OC(C)=O (stereo not drawn)
GI50 [12]: 36.6 µM and > 100 µM | TGI [12]: > 100 µM | GI50 [1]: > 100 µM and 14.6 µM | TGI [1]: > 100 µM and 50.4 µM | TGI [10]: > 100 µM | GI50 [3]: 44.6 µM and > 100 µM | TGI [3]: > 100 µM | TGI [4]: > 100 µM | GI50 [5]: 45.2 µM and > 100 µM | TGI [5]: > 100 µM | GI50 [8]: 43.2 µM and > 100 µM | TGI [8]: > 100 µM | GI50 [9]: > 100 µM and 19.7 µM | TGI [9]: > 100 µM and 48.4 µM

C[As](C)SC1OCC(O)C(O)C1O (stereo not drawn)
GI50 [12]: 0.506 µM | TGI [12]: 5.73 µM | GI50 [1]: 0.805 µM | TGI [1]: 2.36 µM | GI50 [10]: 1.29 µM | TGI [10]: 6.23 µM | GI50 [3]: 0.217 µM | TGI [3]: 1.59 µM | GI50 [4]: 0.148 µM | TGI [4]: 0.624 µM | GI50 [5]: 0.081 µM | TGI [5]: 0.412 µM | GI50 [8]: 0.4 µM | TGI [8]: 6.42 µM | GI50 [9]: 7.18 µM

CC1(C)C2CCC13C(=O)C1OC3(C2)C2C(=O)c3c(ccc4c3ccc3ccccc34)C(=O)C12 (stereo not drawn)
GI50 [12]: > 66.5 µM | TGI [12]: > 100 µM | GI50 [1]: > 65.8 µM | TGI [1]: > 100 µM | GI50 [10]: > 66.3 µM | TGI [10]: > 100 µM | GI50 [3]: 56.5 µM | TGI [3]: > 100 µM | GI50 [4]: 57.4 µM | TGI [4]: > 100 µM | GI50 [5]: 40.7 µM | TGI [5]: > 100 µM | GI50 [8]: 21.5 µM | TGI [8]: > 62.9 µM | GI50 [9]: 13.2 µM | TGI [9]: 92.6 µM

COc1ccc(-c2c(N)noc2-c2cc(OC)c3c(c2)OCCO3)cc1
GI50 [12]: < 0.0157 µM | TGI [12]: > 40.7 µM | GI50 [1]: < 0.01 µM | TGI [1]: 39 µM | GI50 [10]: 0.046 µM | TGI [10]: > 100 µM | GI50 [3]: < 0.01 µM | TGI [3]: > 100 µM | GI50 [4]: 0.131 µM | TGI [4]: > 100 µM | GI50 [5]: < 0.01 µM | TGI [5]: < 0.0126 µM | GI50 [8]: 0.0166 µM | TGI [8]: 1.74 µM | GI50 [9]: < 0.01 µM | TGI [9]: 22.3 µM

CC1OC(OC2C(O)C(O)C(O)C(O)C2O)C(N)CC1N=C(N)C(=O)O (stereo not drawn)
TGI [12]: > 100 µM | TGI [1]: > 100 µM | TGI [10]: > 100 µM | TGI [3]: > 100 µM | TGI [4]: > 100 µM | TGI [5]: > 100 µM | TGI [8]: > 100 µM | TGI [9]: > 100 µM

O=NNc1ccc(S(=O)(=O)c2ccc3ccccc3c2)cn1
TGI [12]: > 100 µM | TGI [1]: > 100 µM | TGI [10]: > 100 µM | TGI [3]: > 100 µM | TGI [4]: > 100 µM | TGI [5]: > 100 µM | TGI [8]: > 100 µM | TGI [9]: > 100 µM

COCC(C(=O)OC1C/C=C/C=C/C(=O)OC(C(C)C(O)C(C)CCC(OC(=O)C(C)N(C)C)C(C)C(OC(C)=O)C(C)/C=C/N(C)C=O)C/C=C/C(OC)CC(C)C/C=C(\C)C(OC)CCC(C)C(O)C1C)N(C)C (stereo not drawn)
GI50 [12]: < 0.0001 µM | TGI [12]: > 1 µM | GI50 [1]: < 0.0001 µM | TGI [1]: 0.0231 µM | GI50 [10]: < 0.0001 µM | TGI [10]: 0.0275 µM | GI50 [3]: < 0.0001 µM | TGI [3]: > 1 µM | GI50 [4]: 0.000173 µM | TGI [4]: > 0.393 µM | GI50 [5]: < 0.0001 µM | TGI [5]: 0.00191 µM | GI50 [8]: < 0.0001 µM | TGI [8]: 0.0139 µM | GI50 [9]: < 0.0001 µM | TGI [9]: < 0.0001 µM
